Where two headings read alike, the source gives them in different places.
Tests used:
[1] = target: T1, 5-HT2A receptor (5-HT2AR) (Homo sapiens, UniProt P28223); assay: Gq dissociation BRET2 in HEK293T; format: cell-based; settings: 37 °C
T1 construct: gene HTR2A; full-length receptor in HEK293T; co-expressed Galphaq-RLuc8/Gbeta1/Ggamma1-GFP2 for Gq dissociation; C-terminal RLuc8 fusion for beta-arrestin2 recruitment

[2] = target: T1, 5-HT2A receptor (5-HT2AR); format: cell-based
[3] = target: T2, 5-HT2C receptor (5-HT2CR) (Homo sapiens, UniProt P28335); assay: Gq dissociation BRET2 in HEK293T; format: cell-based; settings: agonist; 37 °C, 60 min
T2 construct: gene HTR2C; full-length receptor in HEK293T with Galphaq-RLuc8/Gbeta1/Ggamma1-GFP2

[4] = target: T3, 5-HT2B receptor (5-HT2BR) (Homo sapiens, UniProt P41595); assay: Gq dissociation BRET2 in HEK293T; format: cell-based; settings: partial agonist; 37 °C, 60 min
T3 construct: gene HTR2B; full-length receptor in HEK293T with Galphaq-RLuc8/Gbeta1/Ggamma1-GFP2

[5] = target: T1, 5-HT2A receptor (5-HT2AR); assay: competition radioligand binding (NIMH PDSP); settings: competitive

T1 sequence (P28223 whole entry, the tested form may be a part): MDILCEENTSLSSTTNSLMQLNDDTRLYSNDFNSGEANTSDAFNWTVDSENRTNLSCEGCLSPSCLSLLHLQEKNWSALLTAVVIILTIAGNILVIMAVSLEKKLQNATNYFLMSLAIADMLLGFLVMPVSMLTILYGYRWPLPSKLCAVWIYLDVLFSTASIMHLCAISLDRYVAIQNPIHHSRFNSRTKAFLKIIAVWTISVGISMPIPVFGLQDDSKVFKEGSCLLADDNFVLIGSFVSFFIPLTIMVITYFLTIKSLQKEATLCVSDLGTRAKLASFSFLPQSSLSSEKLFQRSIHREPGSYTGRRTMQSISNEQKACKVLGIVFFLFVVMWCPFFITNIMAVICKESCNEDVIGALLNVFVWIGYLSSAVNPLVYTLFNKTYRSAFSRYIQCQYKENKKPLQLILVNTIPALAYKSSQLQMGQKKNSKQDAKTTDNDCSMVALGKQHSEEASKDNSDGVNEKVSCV
T3 sequence (P41595 whole entry): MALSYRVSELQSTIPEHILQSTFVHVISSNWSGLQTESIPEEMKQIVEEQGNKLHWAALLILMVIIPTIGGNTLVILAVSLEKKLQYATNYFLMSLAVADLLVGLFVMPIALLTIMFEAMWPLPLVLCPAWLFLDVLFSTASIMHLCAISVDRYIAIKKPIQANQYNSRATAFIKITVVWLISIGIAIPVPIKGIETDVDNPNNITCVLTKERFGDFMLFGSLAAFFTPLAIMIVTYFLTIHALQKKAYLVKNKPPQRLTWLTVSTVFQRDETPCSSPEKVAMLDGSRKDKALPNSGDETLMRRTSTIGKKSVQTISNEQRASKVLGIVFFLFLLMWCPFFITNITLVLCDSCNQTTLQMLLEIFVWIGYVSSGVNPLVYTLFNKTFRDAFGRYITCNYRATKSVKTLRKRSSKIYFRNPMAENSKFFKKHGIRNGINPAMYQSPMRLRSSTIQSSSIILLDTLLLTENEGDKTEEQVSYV
T2 sequence (P28335 33-458): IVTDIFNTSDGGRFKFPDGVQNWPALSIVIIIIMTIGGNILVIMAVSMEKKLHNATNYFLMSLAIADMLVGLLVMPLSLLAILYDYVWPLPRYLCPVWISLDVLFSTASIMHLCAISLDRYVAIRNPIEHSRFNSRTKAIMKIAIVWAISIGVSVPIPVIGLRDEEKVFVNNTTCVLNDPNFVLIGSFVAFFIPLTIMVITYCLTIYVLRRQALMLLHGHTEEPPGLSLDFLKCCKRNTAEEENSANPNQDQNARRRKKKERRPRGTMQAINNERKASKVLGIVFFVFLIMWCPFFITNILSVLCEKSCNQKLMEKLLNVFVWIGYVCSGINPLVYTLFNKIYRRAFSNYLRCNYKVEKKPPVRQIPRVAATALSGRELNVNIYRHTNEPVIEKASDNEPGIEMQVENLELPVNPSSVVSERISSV

With COc1cc(OC)c(OC)cc1CCNCc1ccccc1OC [compound 32] as the compound, how does the EMAX ([1]; agonist) read?
The EMAX was 99.9 % of 5-HT.

With CN(C)CCc1c[nH]c2ccccc12 [DMT] as the compound, how does the EC50 [2] read?
The EC50 was “(E) Psilocin, (F) DMT, (G) 5-MeO-DMT”.

COc1cc([N+](=O)[O-])c(OC)cc1CCNCc1ccccc1 [compound 2, 25N-NB] was tested. Which EC50 [3] did it give?
Its EC50 is 8.3 nM.

What about the EMAX [4] of the same compound?
The EMAX was 32 % of 5-HT.

COc1ccc2[nH]cc(CCN(C)C)c2c1 [5-MeO-DMT, 5-methoxy-N,N-dimethyltryptamine] was tested. Which EC50 ([2]; agonist, 37 °C, 60 min) did it give?
The EC50 was “(E) Psilocin, (F) DMT, (G) 5-MeO-DMT”.

COc1cc(OC)c(OC)cc1CCNCc1cccc(I)c1 [compound 34, 25O-NB-3-I] was tested. Which EMAX ([1]; partial agonist) did it give?
Its EMAX is 51.7 % of 5-HT.

CN(C)CCc1c[nH]c2cccc(O)c12 [Psilocin] was tested. Which EC50 ([2]; agonist, 37 °C, 60 min) did it give?
Its EC50 is “(E) Psilocin, (F) DMT, (G) 5-MeO-DMT”.

For COc1cc([N+](=O)[O-])c(OC)cc1CCNCc1ccccc1I [compound 10, 25N-NBI], which pKi [5] is on record?
Its pKi is “selectivity for 5-HT2AR over 5-HT2BR and 5-HT2CR in competitive binding studies”.

With COc1cc(CCNCc2cccc3ccccc23)c(OC)cc1C [compound 26, 25D-N1-Nap] as the compound, how does the EMAX ([1]; partial agonist) read?
The EMAX was 34.3 % of 5-HT.

Reference: PMC10724237, “Identification of 5-HT2A receptor signaling pathways associated with psychedelic potential” (Nature Communications, 2023)
